Where two headings read alike, the source gives them in different places.
Tests used:
[1] = Solubility of terephthalic acid salts in water; format: physicochemical
Method: 2.99 g (0.018 mol) of terephthalic acid (in a form of powder, manufactured by Sigma-Aldrich Japan; hereinafter, unless otherwise specified, reagents used were ones manufactured by Sigma-Aldrich Japan) and 0.036 mol of potassium hydroxide (in a form of granule) were put in a 50 mL-glass beaker. Distilled water was filled to obtain a volume of about 15 mL. The resulting mixture was covered with aluminum foil as a lid, heated at 50° C. for 60 minutes while stirred by a hot stirrer (manufactured by AS ONE Corporation), and allowed to cool to 30° C. After stirring at 30° C. for 120 minutes or more and confirming the precipitate remained in the solution, 1 mL of the solution was collected and subjected to centrifugation using a high speed micro centrifuge (manufactured by Tomy Seiko Co., Ltd.) (30° C., 14000 rpm (17800 g), 30 seconds) to collect the supernatant.
The concentration of terephthalic acid in this supernatant was measured and regarded as the solubility of dipotassium terephthalate. With regard to the measurement of the concentration of terephthalic acid, the sample was diluted 16,000-fold with 2.5% aqueous acetonitrile solution and analyzed in separation conditions of Table 1 using high performance liquid chromatography (Waters Corporation, LCT Premier XE). Thereafter, the concentration was calculated on the basis of a ratio of the area of terephthalic acid peaks using aqueous terephthalic acid solution with a known concentration as a control.

[2] = test system: Escherichia coli M7032 (pUXPEaLT_tpaA_tpaK_Pm_fucO_I7L_aldA) strain; test: Decomposition of ethylene glycol during production of TPA-DHD; format: cell-based; settings: raw material dipotassium terephthalate with ethylene glycol, final concentration 72 mM
[3] = test system: Escherichia coli K-12 M7032 strain; test: Decomposition of ethylene glycol during production of TPA-DHD, control strain; format: cell-based; settings: raw material dipotassium terephthalate with ethylene glycol, final concentration 72 mM
Method: Subsequently, in the same manner as described in Example 1, Escherichia coli M7032 (pUXPEaLT_tpaA_tpaK_Pm_fucO_I7L_aldA) strain and Escherichia coli K-12 M7032 strain which serves as a control were cultured in a mini jar fermentor. Concurrently with administration of dipotassium terephthalate which serves as a raw material, 0.278 ml (final concentration 72 mM) of ethylene glycol was placed.
Sampling was carried out 48 hours after the start of main culture. Each of the samples was subjected to analysis in conditions shown in Table 1 by an LC-TOF type mass spectrometer (Waters Corporation, LCT Premier XE). Identification of terephthalic acid was carried out with a combination of retention time of high performance liquid chromatography and an accurate mass value from the mass spectrometer, comparing to a standard sample of terephthalic acid. Among substances appeared as terephthalic acid decreased, TPA-DHD was identified on the basis of a predicted accurate mass value of TPA-DID. Further, quantification of TPA-DHD was carried out on the basis of a calibration curve prepared from an amount of terephthalic acid decreased and an increase in the peak area of TPA-DHD. […]

N.O=C([O-])c1ccc(C(=O)O)cc1.[Na+] [1-sodium 4-ammonium terephthalate, reference compound]
solubility [1]: 612 mM
solubility in water at 30° C. [1]: about 0.61 M

N.N.O=C(O)c1ccc(C(=O)O)cc1 [Diammonium terephthalate, diammonium terephthalate, reference compound]
solubility ([1]; 30 °C, water, thermodynamic from solid, in water at 30° C., rounded values of the summary, read-out: solubility in water at 30° C.): ~510 mM
solubility ([1]; 30 °C, water, thermodynamic from solid, in water, 30° C., read-out: Solubility): 512 mM

O=C(O)C1=CC(O)C(O)(C(=O)O)C=C1 (stereo not drawn) [TPA-DHD, terephthalate 1,2-cis-dihydrodiol]
amount of TPA-DHD produced 48 hours after the start of the culture [2]: 10.5 g/L
amount of TPA-DHD produced 48 hours after the start of the culture [3]: 11.1 g/L
